Here are results for ten compounds from patent US10800791B2, “Triazole ACC inhibitors and uses thereof” (Gilead Apollo, LLC, priority 2015, dated 2020).

Holding throughout (type): cell-based
Experiment [1] has as its system Septoria tritici (St). Description: Growth inhibition assay of fungal pathogens, St. To be noted: Zymoseptoria tritici, 48 h. In a few lines:
(§1)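 Percent inhibition derived at 48 hours from OD600 and visual scores versus 2% DMSO control, with media+DMSO blank as background. Spore inocula in 17% V8 medium were sized from 48 h growth curves; compounds tested at final 50/10/2 or 2/0.4/0.08 ppm.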

Experiment [2] concerns Fusarium moniliforme (Fm). Description: Growth inhibition assay of fungal pathogens, Fm. To be noted: for IC90: Fusarium verticillioides, 48 h, read-out: Concentration at 90% Inhibition Fm. In a few lines: as §1
Experiment [3] deals with Collectotrichum graminicola (Cg). Description: Growth inhibition assay of fungal pathogens, Cg. As to conditions: 48 h. The method, boiled down: as §1
Setting [4] is: Septoria tritici, growth inhibition at 48 hours vs 2% DMSO control, read-out: Concentration at 90% Inhibition St.
[5] abbreviates: Septoria tritici, growth inhibition vs 2% DMSO control at 48 hours, read-out: Concentration at 90% Inhibition St.
Setting [6] is: Fusarium moniliforme, growth inhibition at 48 hours vs 2% DMSO control.
Where [7] appears, read: Fusarium moniliforme, growth inhibition vs 2% DMSO control at 48 hours.
The mark [8] stands for this setting: Collectotrichum graminicola, growth inhibition at 48 hours vs 2% DMSO control, read-out: Concentration at 90% Inhibition Cg.
Setting [9] is: Collectotrichum graminicola, growth inhibition vs 2% DMSO control at 48 hours, read-out: Concentration at 90% Inhibition Cg.
Where [10] appears, read: read-out: Concentration at 90% Inhibition St, Septoria tritici, growth inhibition at 48 hours vs 2% DMSO control.
Setting [11] is: read-out: Concentration at 90% Inhibition St, Septoria tritici, growth inhibition vs 2% DMSO control at 48 hours.
Where [12] appears, read: read-out: Concentration at 90% Inhibition Cg, Collectotrichum graminicola, growth inhibition at 48 hours vs 2% DMSO control.
Where [13] appears, read: read-out: Concentration at 90% Inhibition Cg, Collectotrichum graminicola, growth inhibition vs 2% DMSO control at 48 hours.

In brackets after ≈: the same amount, converted by molar mass. Where two headings read alike, the source gives them in different places.

Turning to `Cc1c(-n2nccn2)sc2c1c(=O)n(C(C)(C)C(=O)NC(C)C)c(=O)n2C[C@H](OC(C)C)c1cc(F)ccc1OCC1COC1` [Compound I-55, (R)-2-(1-(2-(5-fluoro-2-(oxetan-3-ylmethoxy)phenyl)-2-isopropoxyethyl)-5-methyl-2,4-dioxo-6-(2H-1,2,3-triazol-2-yl)-1,4-dihydrothieno[2,3-d]pyrimidin-3(2H)-yl)-N-isopropyl-2-methylpropanamide], the IC90 in experiment [1] (setting [4]) is more than 50 µg/mL; in experiment [1] (setting [5]), more than 50 µg/mL; in experiment [2] (setting [6]), 0.08 µg/mL (≈ 0.124 µM); in experiment [2] (setting [7]) it was 0.08 µg/mL (≈ 0.124 µM); in experiment [3] (setting [8]), 0.4 µg/mL (≈ 0.622 µM); in experiment [3] (setting [9]), 0.4 µg/mL (≈ 0.622 µM).

For the compound `Cc1c(-n2nccn2)sc2c1c(=O)n(C(C)(C)C(=O)NC(C)C)c(=O)n2C[C@H](OC(C)C)c1cc(F)ccc1OCC#N` [Compound I-56, (R)-2-(1-(2-(2-(cyanomethoxy)-5-fluorophenyl)-2-isopropoxyethyl)-5-methyl-2,4-dioxo-6-(2H-1,2,3-triazol-2-yl)-1,4-dihydrothieno[2,3-d]pyrimidin-3(2H)-yl)-N-isopropyl-2-methylpropanamide], the IC90 was 10 µg/mL (≈ 16.3 µM) in experiment [1] (setting [10]); more than 50 µg/mL in experiment [1] (setting [11]); 0.08 µg/mL (≈ 0.131 µM) in experiment [2]; 2 µg/mL (≈ 3.27 µM) in experiment [3] (setting [12]); 2 µg/mL (≈ 3.27 µM) in experiment [3] (setting [13]). Also, in experiment [2] (setting [6]), the “Concentration at 90% Inhibition Fm” value is “AA (compound concentration of 0.08 ppm at 90% inhibition of fungal pathogens)”.

Take `COc1ccc(F)cc1[C@H](Cn1c(=O)n(C(C)(C)C(=O)N2CC=CC2)c(=O)c2c(C)c(-n3nccn3)sc21)OC1CCOCC1` [Compound I-62, (R)-3-(1-(2,5-dihydro-1H-pyrrol-1-yl)-2-methyl-1-oxopro-pan-2-yl)-1-(2-(5-fluoro-2-methoxyphenyl)-2-((tetrahydro-2H-pyran-4-yl)oxy)ethyl)-5-methyl-6-(2H-1,2,3-triazol-2-yl)thieno[2,3-d]pyrimidine-2,4(1H,3H)-dione]: the IC90 in experiment [1] (setting [4]) is more than 50 µg/mL; in experiment [1] (setting [5]), more than 50 µg/mL; in experiment [2] (setting [6]), 0.08 µg/mL (≈ 0.125 µM); in experiment [2] (setting [7]), 0.08 µg/mL (≈ 0.125 µM); in experiment [3] (setting [8]), 0.4 µg/mL (≈ 0.626 µM); in experiment [3] (setting [9]), 0.4 µg/mL (≈ 0.626 µM).

Turning to `COc1ccc(F)cc1[C@H](Cn1c(=O)n(C(C)(C)C(=O)N2CC=CC2)c(=O)c2c(C)c(-n3nccn3)sc21)OC[C@@H](C)O` [Compound I-63, 3-(1-(2,5-dihydro-1H-pyrrol-1-yl)-2-methyl-1-oxopropan-2-yl)-1-((R)-2-(5-fluoro-2-methoxyphenyl)-2-((R)-2-hydroxypropoxy)ethyl)-5-methyl-6-(2H-1,2,3-triazol-2-yl)thieno[2,3-d]pyrimidine-2,4(1H,3H)-dione], the IC90 is more than 50 µg/mL in experiment [1] (setting [4]); more than 50 µg/mL in experiment [1] (setting [5]); 0.08 µg/mL (≈ 0.131 µM) in experiment [2] (setting [6]); 0.08 µg/mL (≈ 0.131 µM) in experiment [2] (setting [7]); 0.4 µg/mL (≈ 0.653 µM) in experiment [3] (setting [8]); 0.4 µg/mL (≈ 0.653 µM) in experiment [3] (setting [9]).

As to `COCCO[C@@H](Cn1c(=O)n(C(C)C(=O)N2CCCC2)c(=O)c2c(C)c(-n3nccn3)sc21)c1cc(F)ccc1OC` (stereo partly drawn) [Compound I-64, 1-((R)-2-(5-fluoro-2-methoxyphenyl)-2-(2-methoxy-ethoxy)ethyl)-5-methyl-3-(1-oxo-1-(pyrrolidin-1-yl)propan-2-yl)-6-(2H-1,2,3-triazol-2-yl)thieno[2,3-d]pyrimidine-2,4(1H,3H)-dione], the IC90 is more than 50 µg/mL in experiment [1] (setting [4]); more than 50 µg/mL in experiment [1] (setting [5]); 0.4 µg/mL (≈ 0.666 µM) in experiment [2] (setting [6]); 0.4 µg/mL (≈ 0.666 µM) in experiment [2] (setting [7]); 10 µg/mL (≈ 16.6 µM) in experiment [3] (setting [8]); more than 50 µg/mL in experiment [3] (setting [9]).

`COCCO[C@@H](Cn1c(=O)n([C@H](C)C(=O)N2CCCC2)c(=O)c2c(C)c(-n3nccn3)sc21)c1cc(F)ccc1OC` [Compound I-65, 1-((R)-2-(5-fluoro-2-methoxyphenyl)-2-(2-methoxy-ethoxy)ethyl)-5-methyl-3-((R)-1-oxo-1-(pyrrolidin-1-yl)propan-2-yl)-6-(2H-1,2,3-triazol-2-yl)thieno[2,3-d]pyrimidine-2,4(1H,3H)-dione]: the IC90 in experiment [1] (setting [4]) is more than 50 µg/mL; in experiment [1] (setting [5]), more than 50 µg/mL; in experiment [2] (setting [6]) it was 0.4 µg/mL (≈ 0.666 µM); in experiment [2] (setting [7]), 0.4 µg/mL (≈ 0.666 µM); in experiment [3] (setting [8]) it was 10 µg/mL (≈ 16.6 µM); in experiment [3] (setting [9]), more than 50 µg/mL.

In the case of `COCCCO[C@@H](Cn1c(=O)n(C(C)(C)C(=O)N2CCCC2)c(=O)c2c(C)c(-n3nccn3)sc21)c1cc(F)ccc1OC` [Compound I-68, (R)-1-(2-(5-fluoro-2-methoxyphenyl)-2-(3-methoxy-propoxy)ethyl)-5-methyl-3-(2-methyl-1-oxo-1-(pyrrolidin-1-yl)propan-2-yl)-6-(2H-1,2,3-triazol-2-yl)thieno[2,3-d]pyrimidine-2,4(1H,3H)-dione], the IC90 in experiment [1] (setting [4]) was more than 50 µg/mL; in experiment [1] (setting [5]) it was more than 50 µg/mL; in experiment [2] (setting [6]), 0.08 µg/mL (≈ 0.127 µM); in experiment [2] (setting [7]) it was 0.08 µg/mL (≈ 0.127 µM); in experiment [3] (setting [8]), 2 µg/mL (≈ 3.18 µM); in experiment [3] (setting [9]) it was 2 µg/mL (≈ 3.18 µM).

Turning to `COCCCO[C@@H](Cn1c(=O)n(C(C)(C)C(=O)NC(C)C)c(=O)c2c(C)c(-n3nccn3)sc21)c1cc(F)ccc1OC` [Compound I-69, (R)-2-(1-(2-(5-fluoro-2-methoxyphenyl)-2-(3-methoxy-propoxy)ethyl)-5-methyl-2,4-dioxo-6-(2H-1,2,3-triazol-2-yl)-1,4-dihydrothieno[2,3-d]pyrimidin-3(2H)-yl)-N-isopropyl-2-methylpropanamide], the IC90 in experiment [1] (setting [10]) is 10 µg/mL (≈ 16.2 µM); in experiment [1] (setting [11]) it was more than 50 µg/mL; in experiment [2] it was 0.08 µg/mL (≈ 0.13 µM); in experiment [3] (setting [12]), 0.4 µg/mL (≈ 0.649 µM); in experiment [3] (setting [13]), 0.4 µg/mL (≈ 0.649 µM). The “Concentration at 90% Inhibition Fm” value in experiment [2] (setting [6]) is given as “AA (compound concentration of 0.08 ppm at 90% inhibition of fungal pathogens)”.

Take `C=CCNC(=O)C(C)(C)n1c(=O)c2c(C)c(-n3nccn3)sc2n(C[C@H](OC2CCOCC2)c2cc(F)ccc2OC)c1=O` [Compound I-70, (R)—N-allyl-2-(1-(2-(5-fluoro-2-methoxyphenyl)-2-((tetrahydro-2H-pyran-4-yl)oxy)ethyl)-5-methyl-2,4-dioxo-6-(2H-1,2,3-triazol-2-yl)-1,4-dihydrothieno[2,3-d]pyrimidin-3(2H)-yl)-2-methylpropanamide]: the IC90 was more than 50 µg/mL in experiment [1] (setting [10]); more than 50 µg/mL in experiment [1] (setting [11]); 0.08 µg/mL (≈ 0.128 µM) in experiment [2]; 2 µg/mL (≈ 3.19 µM) in experiment [3] (setting [12]); 2 µg/mL (≈ 3.19 µM) in experiment [3] (setting [13]). Besides, the “Concentration at 90% Inhibition Fm” value in experiment [2] (setting [6]) is given as “AA (compound concentration of 0.08 ppm at 90% inhibition of fungal pathogens)”.

Take `C=CCN(C)C(=O)C(C)(C)n1c(=O)c2c(C)c(-n3nccn3)sc2n(C[C@H](OC2CCOCC2)c2cc(F)ccc2OC)c1=O` [Compound I-71, (R)—N-allyl-2-(1-(2-(5-fluoro-2-methoxyphenyl)-2-((tetrahydro-2H-pyran-4-yl)oxy)ethyl)-5-methyl-2,4-dioxo-6-(2H-1,2,3-triazol-2-yl)-1,4-dihydrothieno[2,3-d]pyrimidin-3(2H)-yl)-N,2-dimethylpropanamide]: the IC90 in experiment [1] (setting [4]) was more than 50 µg/mL; in experiment [1] (setting [5]) it was more than 50 µg/mL; in experiment [2] (setting [6]), 0.08 µg/mL (≈ 0.125 µM); in experiment [2] (setting [7]), 0.08 µg/mL (≈ 0.125 µM); in experiment [3] (setting [8]) it was 0.08 µg/mL (≈ 0.125 µM); in experiment [3] (setting [9]), 0.08 µg/mL (≈ 0.125 µM).
